Read-outs that look alike come from different tables or passages of the source.
Columns and labels:
[1] = tested on: CYP 3A4
Description: (§1) 600 microliters of solution D (pH7; guanadium thiocyanate 4M; sodium citrate 25 mM; sarcosyl 0.5%; and 1.4 ml of beta-mercaptoethanol per 200 ml of solution D) have been added to each well so as to induce cell lysis. […] Are then successively added: 0.1 volume of sodium acetate (2M, pH4), 1 volume of water-saturated phenol and 0.2 volume of chloroform/isoamylalcohol (49/1, V/V). At each step, the suspension is vigorously vortexed, then left to cool on ice for 15-20 min, and centrifigated for 30 min at 4000 g and 4° C. An equal volume of isopropanol is added after removal of the aqueous phase.
(§2) RNA are then precipitated (1 hour at −20° C.) and centrifuged for 30 min at 4000 g and 4° C. The supernatant is removed and the pellets are re-suspended in 2.7 ml of solution D. 2.7 ml of isopropanol are then added to the suspension, and the RNA are again precipitated (1 hour at −20° C.) and centrifugated. The pellets are washed with 5.4 ml of 70% ethanol. After a final centrifugation and removal of the supernatant, the pellets are air-dried, and re-suspended in sterile water containing DEPC (DEPC 1/1000 in water, then sterilization). Total RNA contents are measured on a UV spectrophotometer.
(§3) 25 micrograms of total RNA have been placed into contact with oligo-dT (0.4 mM final of an equimolar composition of oligod(T) and of three oligosd(T) which have an A or a G or a C in 3′), and heated to 70° C. for 10 min, then incubated for 5 min on ice so as to allow oligo-dT hybridization on polyA RNA.
(§4) The labeled cDNA are then hybridized with the filters (48 hours at 42° C.). […] Filters have then been washed with SSC 2× buffer without SDS for 30 min at 42° C., and exposed overnight in a phosphorimager cassette.
(§5) For comparison purposes, Northern blots comprising 10 micrograms of total RNA have been incubated for hybridization with each cDNA probe separately. Quantifications are achieved by measuring band intensities per 18S quantity (as evaluated by ethidium bromide coloration).

[2] = tested on: CYP 3A5; conditions: hepatocytes
Description: as §1, §2, §3, §4, §5

[3] = tested on: CYP 3A7; conditions: hepatocytes
Description: as §1, §2, §3, §4, §5

[4] = tested on: CYP 14 sub-family; conditions: human hepatocytes, 48 hours exposure; PB 1 microM, RIF 50 microM
Description: RNA are then precipitated (1 hour at −20° C.) and centrifuged for 30 min at 4000 g and 4° C. The supernatant is removed and the pellets are re-suspended in 2.7 ml of solution D. 2.7 ml of isopropanol are then added to the suspension, and the RNA are again precipitated (1 hour at −20° C.) and centrifugated. The pellets are washed with 5.4 ml of 70% ethanol. After a final centrifugation and removal of the supernatant, the pellets are air-dried, and re-suspended in sterile water containing DEPC (DEPC 1/1000 in water, then sterilization). Total RNA contents are measured on a UV spectrophotometer. […]

[5] = tested on: CYP450; conditions: known inducers used for validation; cited from earlier work
[6] = tested on: CYP 1A1; test: membrane (slot blot) and Northern blot assay of CYP450 mRNA in treated human hepatocytes; type: cell-based; conditions: 48 hours exposure, 3-MC 5 microM
Description: (§6) Total RNA contents are measured on a UV spectrophotometer.
(§7) The labeled cDNA thus produced are then purified.

[7] = tested on: CYP 1A2; test: as above; type: cell-based; conditions: 48 hours exposure, 3-MC 5 microM
Description: as §6, §7

[8] = tested on: CYP450 isoforms; test: specificity assays of the cDNA probes (hybridization on filters and Northern blot); type: binding, human; conditions: 32P-labeled probe, filters with plasmidic DNA / 3′-NTR, Northern blot of total RNA
Excerpt: On nylon® membrane filters, the following DNA sequences were deposited:
either the sequences obtained by amplification of 50 nanograms of plasmidic DNA as described in the above example 1, followed by purification and UV spectrophotometry dosage (Power Wave X2, Biotek instruments®, St Quentin en Yvelines, France),
or plasmidic DNA (50 nanograms of linearized plasmid containing a probe inserted therein, or of empty pUC plasmid) obtained from the clones described in the above example 1 after linearization by Bam H1 (20 IU for 20 micrograms of plasmidic DNA, 1 hour at 37° C.).
The amplified sequences as well as the plasmidic ones were denatured by EDTA (final concentration of 10 mM, 10 min at 65° C.) and then by NaOH (final concentration of 0.1 M, 30 min at ambient temperature), and neutralized by SSC6× buffer, before being deposited onto a nylon® membrane (Biosupport®, Pall, Portsmouth, UK). Binding to the membrane was achieved by exposure to UV for 4 min and heating at 80° C. for 2 hours.
Three types of specificity assays have been performed:
intra-probe specificity: each cDNA probe (SEQ ID NO: 1-14) has been labeled with ^32P following Megaprime® DNA Labelling System (Amersham Pharmacia Biotech, Elancourt, France) and according to random primer polymerization. […]

Molecule: CCC1(c2ccccc2)C(=O)NC(=O)NC1=O [phenobarbital, Phenobarbital]
- change in CYP 3A4 (hybridization signal of reverse-transcribed total RNA) ([1]; hepatocytes): strong decrease
- variation of CYP 3A5 (hybridization signal) [2]: no variation
- variation of CYP 3A7 (hybridization signal) [3]: no variation
- variation of CYP 14 sub-family (hybridization signal) [4]: no variation
- CYP450 induced [5]: CYP 3A

Molecule: Cc1ccc2cc3c(ccc4ccccc43)c3c2c1CC3 [3-methylcholanthrene]
- change in CYP 1A1 (hybridization signal of reverse-transcribed total RNA) [6]: increase
- change in CYP 1A2 (hybridization signal of reverse-transcribed total RNA) [7]: also but more weakly
- change in CYP 3A4 (hybridization signal of reverse-transcribed total RNA) ([1]; human hepatocytes, 48 hours exposure, 3-MC 5 microM, PB 1 microM, RIF 50 microM): decrease
- CYP450 induced [5]: CYP 1A

B1: SEQ ID NO: 9: DNA molecule which hybridizes to CYP 2C19 (nucleic acid, listed as Homo sapiens)
DNA: TTTCACTATCTGTGATGCTTCTTCTGACCCGTCATCTCACATTTTCCCTTCCCCCAAGATCTAGTGAACATTCAGCCTCCATTAAAAAAGTTTCACTGTGCAAATATATCTGCTATTCCCCATACTCTATAATAGTTACATTGAGT
- hybridization specificity of the probe (cross-hybridization with other CYP450 isoforms, empty plasmid, other RNA from human hepatocytes, 3′-NTR) [8]: may hybridize in the 3′-NTR region of CYP 2C9

B2: SEQ ID NO: 8: DNA molecule which hybridizes to CYP 2C9 (nucleic acid, listed as Homo sapiens)
DNA: TTTGTGTATTATAATTCAAAGGCATTTCTTTTCTGCATGTTCTAAATAAAAAGCATTATTATTTGCTG
modifications: DNA, backbone and methylation of C not given here
notes: DNA molecule which hybridizes to CYP 2C9
- hybridization specificity of the probe (cross-hybridization with other CYP450 isoforms, empty plasmid, other RNA from human hepatocytes, 3′-NTR) [8]: only hybridizes to its CYP 2C9 target
